Measured values taken from patent US9387249B2, “Methods of treating hypertension with at least one angiotensin II receptor blocker and chlorthalidone” (Takeda Pharmaceutical Company Limited, priority 2008, dated 2016).

Assays:
Format in all cases: in vivo, human
[1] = test system: patients with stage 2 hypertension; test: Phase 3 randomized double-blind study: safety (adverse events, laboratory tests)
Text: More specifically, as will be discussed in more detail below, the purpose of this study is evaluate the change in 24-hour mean systolic blood pressure (SBP) by ambulatory blood pressure monitoring (ABPM) in response to (5-methyl-2-oxo-1,3-dioxol-4-yl)methyl 2-ethoxy-1-{[2′-(5-oxo-4,5-dihydro-1,2,4-oxadiazol-3-yl)biphenyl-4-yl]methyl}-1H-benzimidazole-7-carboxylate potassium salt plus chlorthalidone compared to placebo plus chlorthalidone for 6 weeks in subjects with uncontrolled essential hypertension. Subjects that qualify for the studied will be discontinued from their current antihypertensive medication. After a 2-week run-in-period, subjects who meet the entry criteria will be given (5-methyl-2-oxo-1,3-dioxol-4-yl)methyl 2-ethoxy-1-{[2′-(5-oxo-4,5-dihydro-1,2,4-oxadiazol-3-yl)biphenyl-4-yl]methyl}-1H-benzimidazole-7-carboxylate potassium salt plus chlorthalidone or placebo plus chlorthalidone once daily for 6 weeks. Blood pressure will be monitored during study visits and ABPM will be used to evaluate blood pressure for 24-hour periods twice during the study. Subjects will receive physical examinations including measurement of vital signs and blood and urine samples will be collected (for analyses related to safety monitoring during study visits). […]

[2] = test system: patients with stage 2 hypertension; test: Phase 3 randomized double-blind study: change from baseline in 24-hour mean SBP by ambulatory blood pressure monitoring (ABPM); details: Chlorthalidone 25 mg + placebo once daily, oral, 6 weeks
Method: (§1) This is a phase 3, multi-center, randomized, parallel group, double-blind, placebo-controlled, study to evaluate the efficacy and safety of (5-methyl-2-oxo-1,3-dioxol-4-yl)methyl 2-ethoxy-1-{[2′-(5-oxo-4,5-dihydro-1,2,4-oxadiazol-3-yl)biphenyl-4-yl]methyl}-1H-benzimidazole-7-carboxylate potassium salt when combined with chlorthalidone 25 mg once daily (QD) in subjects with uncontrolled essential hypertension.
(§2) More specifically, as will be discussed in more detail below, the purpose of this study is evaluate the change in 24-hour mean systolic blood pressure (SBP) by ambulatory blood pressure monitoring (ABPM) in response to (5-methyl-2-oxo-1,3-dioxol-4-yl)methyl 2-ethoxy-1-{[2′-(5-oxo-4,5-dihydro-1,2,4-oxadiazol-3-yl)biphenyl-4-yl]methyl}-1H-benzimidazole-7-carboxylate potassium salt plus chlorthalidone compared to placebo plus chlorthalidone for 6 weeks in subjects with uncontrolled essential hypertension. Subjects that qualify for the studied will be discontinued from their current antihypertensive medication. […] Blood pressure will be monitored during study visits and ABPM will be used to evaluate blood pressure for 24-hour periods twice during the study. […]

[3] = test system: patients with stage 2 hypertension; test: Phase 3 randomized double-blind study: change in clinic SBP; details: chlorthalidone plus placebo once daily
Method: as §1, §2

| Structure (SMILES) | Effect on the hypokalemia seen with chlorthalidone alone ([1]; azilsartan medoxomil added to chlorthalidone) | Δ from baseline, mean, Absolute, Mean 24-Hour SBP by ABPM [2] | Absolute reduction in clinic SBP [3] | Hypokalemia, frequency ([1]; chlorthalidone plus placebo compared with chlorthalidone plus azilsartan medoxomil) |
| --- | --- | --- | --- | --- |
| CCOc1nc2cccc(C(=O)OCc3oc(=O)oc3C)c2n1Cc1ccc(-c2ccccc2-c2noc(=O)[nH]2)cc1.[K] [Azilsartan medoxomil, (5-methyl-2-oxo-1,3-dioxol-4-yl)methyl 2-ethoxy-1-{[2′-(5-oxo-4,5-dihydro-1,2,4-oxadiazol-3-yl)biphenyl-4-yl]methyl}-1H-benzimidazole-7-carboxylate potassium salt] | attenuated the hypokalemia |  |  |  |
| NS(=O)(=O)c1cc(C2(O)NC(=O)c3ccccc32)ccc1Cl (stereo not shown) [Chlorthalidone, 2-chloro-5-(1-hydroxy-3-oxo-1,2-dihydroisoindol-1-yl)-benzenesulfonamide] |  | −15.9 mm Hg | −21.8 mm Hg | more frequent |
